In series [1] the test system is kinase inhibitor-induced mouse model with hand-foot skin reaction. As to the kind of experiment: kinase inhibitor-induced mouse model with hand-foot skin reaction. The following applies: for cytokine IL-1β in the skin tissues of the hind limb toes of the mice: modeling drug oral 14 days, p<0.05; for cytokine IL-1β in the skin tissues of the hind limb toes of the mice / epidermal layer and the stratum corneum in the skin tissues of the hind limb toes / skin of the hind limb toes of the mice (appearance): vs normal control group; for swelling of the hind limb toes of the mice / epidermal layer and the stratum corneum in the skin tissues of the hind limb toes: modeling drug oral; for swelling of the hind limb toes of the mice: 14 days: sorafenib 100 mg/kg, osimertinib 10 mg/kg; for epidermal layer and the stratum corneum in the skin tissues of the hind limb toes: 14 days: sorafenib, osimertinib; for skin of the hind limb toes of the mice (appearance): modeling for 14 days: sorafenib 100 mg/kg, osimertinib 10 mg/kg oral gavage once daily; for expression level of cytokine IL-1β in the skin tissues of the hind limb toes of the mice / infiltration of inflammatory cells / thickening of the epidermal layer and the stratum corneum in the skin tissues: 3% ointment topical or nicotinamide 100 mg/kg oral; for infiltration of inflammatory cells / thickening of the epidermal layer and the stratum corneum in the skin tissues / swelling of the toes caused by the modeling drugs: sorafenib and osimertinib models; for swelling of the toes caused by the modeling drugs: compound of formula (I) 3% ointment topical or nicotinamide 100 mg/kg oral, once daily 16 days. It counts as in vivo, ICR mice. The text has this: After adaptive feeding for 7 days, SPF-grade ICR mice (male, 5-6 weeks old, with a body weight of approximately 35 g) were randomly divided into groups, including a blank control group (6 mice), a sorafenib modeling group (6 mice), an osimertinib modeling group (6 mice), a sorafenib + compound of formula (I) group (6 mice), an osimertinib + compound of formula (I) group (6 mice), a sorafenib + nicotinamide group (6 mice), and an osimertinib + nicotinamide group (6 mice). The groups were respectively administered corresponding modeling drugs by oral gavage (sorafenib at 100 mg/kg and osimertinib at 10 mg/kg) once daily; and the blank control group was administered an equivalent volume of normal saline. After administration with the chemotherapeutic drugs for 2 weeks, the ointments containing the compound of formula (I) (at a compound content of 3%) used in Example 10 were respectively applied topically in the groups, or nicotinamide was orally administered (100 mg/kg) once daily continuously for 16 days.
Measurement of the degree of swelling of toes: The degree of swelling of hind limb toes of the mice was measured using a toe swelling tester (KW-7C, Nanjing Calvin Biotechnology Co., Ltd.) before administration with the modeling drugs, after administration with the modeling drugs for 2 weeks, and before sacrifice, respectively. Before measurement, ankle joints of hind feet of the mice were marked at same positions before administration, after administration for 2 weeks, and before sacrifice. During measurement, water was properly located at the same level as the marked positions, and numerical values were recorded after becoming stable.
Pathological staining of skin tissues: Skin tissue samples were selected from hind limb toes of the mice and placed in 4% paraformaldehyde for fixation at room temperature for 4 hours. Then, the tissues were taken out and rinsed with running water for several hours. The samples were subjected to dehydration treatment with 70%, 80%, and 90% ethanol solutions, followed by treatment with a mixed solution of equal amounts of absolute alcohol and xylene for 15 minutes, and then permeabilized twice with a xylene solution for 15 minutes each time until the samples became transparent. The samples were placed in a mixture of half xylene and half paraffin for soaking for 15 minutes, and then, paraffin I and paraffin II were added for wax penetration for one hour, respectively. After embedding with paraffin, the samples were sectioned, baked, dewaxed, and hydrated. Then, the hydrated sections were placed in a hematoxylin solution (ZSGB-BIO, article No. 23041001) for staining for 3 minutes, and a differentiation solution of hydrochloric acid in ethanol was added for differentiation for 15 seconds. After rinsing with water, a Scott bluing solution (Servicebio, article No. 20230801) was added for bluing for 15 seconds. After rinsing with running water, the sections were stained with an eosin solution (Solarbio, article No. 33535) for 3 minutes, rinsed with running water, dehydrated, permeabilized, sealed, and inspected under a microscope.
Immunohistochemical staining: After baking, dewaxing, and hydration, paraffin sections of skin tissues of hind limb toes of the mice were subjected to antigen retrieval using a 0.2 M citric acid buffer solution (containing 1.534 g of citric acid, 3.1 g of sodium citrate, and 100 mL of distilled water, pH 4.7). Endogenous […] was removed using 3% hydrogen peroxide (Shandong Annjet High-Tech Disinfection Technology Co., Ltd., article No. 20290902), and the sections were incubated at room temperature for 10 minutes and then fully rinsed with a PBS buffer solution (containing 8 g of NaCl, 0.2 g of KCl, 1.44 g of Na2HPO4, and 1 M HCl, pH 7.4). The sections were permeabilized with 0.5% Triton-X-100 (AmyJet Scientific, article No. A-CSH436-100 mL), respectively permeabilized with mouse anti-IL-1β and rabbit IL-8 for 10 minutes, and not permeabilized with rabbit anti-IL-6. […]

Another series deals with THP-1 cells. As to the kind of experiment: m6A methylation level of THP-1 cells (LC-MS). It counts as cell-based. The following applies: 24 hours. The protocol: 1*10^8 THP-1 cells were seeded in culture dishes, into which 4 nM and 400 nM compound of formula (I), 4 nM and 4 µM nicotinamide, and 5 µM m6A methyltransferase inhibitor UZH2 were added, respectively. The cells were cultured in an incubator containing 5% CO2 at 37°C for 24 hours. After discarding culture media and washing with PBS, the cells were centrifuged, and the supernatant was discarded. 400 µL of an RLT cell lysis buffer was added, and the cells were stored at -80°C. A portion of samples were selected, into which 400 µL of 70% ethanol was added and evenly stirred. 700 µL of a sample was transferred to an RNeasy centrifugation column and centrifuged for 15 seconds (8,000 g, 25°C). Then, 700 µL of an RW1 buffer solution was added and centrifuged for 15 seconds (8,000 g, 25°C), followed by the addition of 500 µL of an RPE buffer solution and centrifugation for 16 seconds (8,000 g, 25°C). The above steps were repeated twice, followed by centrifugation for 2 minutes to completely remove the eluent. 30 µL of nuclease-free water was added to a chromatographic column, and the cells were incubated for 5 minutes and then centrifuged for 2 minutes (12,000 g, 25°C). The steps were repeated 3 times. 2 µL of an RNA sample was selected and dissolved in 98 µL of a 10 mM Tris buffer solution, and the absorbance at 260 nm was measured using a Nanodrop to determine the RNA concentration.
50 µg of total RNA was selected and dissolved in 100 µL of nuclease-free water. Oligo (dT) magnetic beads were resuspended, 50 µL of the magnetic beads were transferred to a 1.5 mL test tube, 500 µL of a binding buffer solution was added, the mixture was allowed to stand, and the supernatant was removed. 100 µL of an RNA sample was added to 200 µL of a magnetic bead suspension for mixing, the mixture was stirred and incubated in a Thermomixer at 25°C for 5 minutes, the supernatant was discarded, and then 200 µL of a washing buffer solution was added. The steps were repeated 2 times, and then centrifugation was performed for 10 seconds (2,000 g, 25°C). 50 µL of an elution buffer solution was added and evenly mixed, the mixture was heated to 75°C, the supernatant was transferred to a new 1.5 mL test tube and purified using an RNA Clean & Concentrator kit, and the RNA concentration was determined.
20 µL (approximately 200 ng) of an mRNA sample and 20 µL of a Nuclease P1 digestion premix (including 0.5 µL of 2 unit/µL Nuclease P1, 0.4 µL of 5 M NaCl, 2 µL of 0.1 M ZnCl2, and 17.1 µL of PCR-grade water) were added into each test tube, and the mixture was stirred and incubated in a Thermomixer at 37°C for 2 hours. […] 20 µL of the supernatant was collected, an m6A methylation fragment was analyzed by LC-MS, and the m6A inhibition rate was calculated. […]

For the compound `CNC(=O)c1cc(Oc2ccc(NC(=O)Nc3ccc(Cl)c(C(F)(F)F)c3)cc2)ccn1` [Sorafenib, sorafenib], in series [1], the “cytokine IL-1β in the skin tissues of the hind limb toes of the mice” value is given as “significantly increased”; the “swelling of the hind limb toes of the mice” value is on record as “significant swelling of the hind limb toes of the mice was caused”; the “epidermal layer and the stratum corneum in the skin tissues of the hind limb toes” value is recorded as “significantly thickened”; the “skin of the hind limb toes of the mice (appearance)” value is “obvious erythema and rhagades”.

Take `C=CC(=O)Nc1cc(Nc2nccc(-c3cn(C)c4ccccc34)n2)c(OC)cc1N(C)CCN(C)C` [Osimertinib, osimertinib]: in series [1], the “cytokine IL-1β in the skin tissues of the hind limb toes of the mice” value is given as “significantly increased”; the “swelling of the hind limb toes of the mice” value is “significant swelling of the hind limb toes of the mice was caused”; the “epidermal layer and the stratum corneum in the skin tissues of the hind limb toes” value is reported as “significantly thickened”; the “skin of the hind limb toes of the mice (appearance)” value was “obvious erythema and rhagades”.

Take `NC(=O)[C@H]1CCCc2c1[nH]c1ccc(Cl)cc21` [Compound of formula (I), (S)-6-chloro-2,3,4,9-tetrahydro-1H-carbazole-carboxamide]: in series [1] (osimertinib model), the “expression level of cytokine IL-1β in the skin tissues of the hind limb toes of the mice” value (shortened to “expression level of cytokine IL-1β”) is recorded as “significantly decrease”. Besides, in series [1], the “infiltration of inflammatory cells” value was “no infiltration of inflammatory cells observed”; the “thickening of the epidermal layer and the stratum corneum in the skin tissues” value was “effectively alleviate”; the “swelling of the toes caused by the modeling drugs” value is on record as “effectively alleviate”. Also, the “expression level of cytokine IL-1β” value in series [1] (sorafenib model) is “significantly decrease”. Also, in the series with THP-1 cells (4 nM and 400 nM, concentration-dependent), the “m6A methylation level of mRNA of the cells” value is listed as “significantly inhibit”. Also, the m6A inhibition activity entry with THP-1 cells (400 nM) is reported as “comparable to that of the m6A methyltransferase inhibitor UZH2 at a concentration of 5 µM”.

For `NC(=O)c1cccnc1` [Nicotinamide, nicotinamide], the “expression level of cytokine IL-1β” value in series [1] (osimertinib model) and in series [1] (sorafenib model) was “didn't have a significant impact” in each case. Besides, the “infiltration of inflammatory cells” value in series [1] is recorded as “infiltration of inflammatory cells still observed”. Further, the “thickening of the epidermal layer and the stratum corneum in the skin tissues” value in series [1] is listed as “didn't significantly alleviate”. Moreover, the “swelling of the toes caused by the modeling drugs” value in series [1] is reported as “not observed that oral administration of the nicotinamide at 100 mg/kg significantly alleviated the swelling”. Further, the “inhibitory effect on the m6A methylation level of mRNA of the cells” value in the series on THP-1 cells (high concentration (4 µM)) and with THP-1 cells (low concentration (4 nM)) was “no inhibitory effect” in each case.

These data come from patent EP4782431A1 (Suzhou Merna Therapeutics Co. Ltd, priority 2023, dated 2025).
